Test results: the supplement of paper PMC10307832

Compound: CN(C)C(=N)NC(=N)N [Metformin] + Cc1nc(NC(=O)N2CCC[C@H]2C(N)=O)sc1-c1ccnc(C(C)(C)C(F)(F)F)c1 [Alpelisib] (partner 2 µM)
Experiment: relative viability (nuclei count vs DMSO), 5 days (fraction); higher = more cells survive
Details: first compound 1000 µM
Summary of the method: (§1)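 Lung cancer cell lines, seeded in 1536-well plates, were treated the following day by pin tool with a single drug or with five library-drug doses (not always all listed) in √10 steps on top of a fixed anchor-drug dose. Cells were fixed and nuclei stained in one step after 5 days, and nuclei were counted. Relative viability is the nuclei count for treated wells divided by that for vehicle wells, reported as medians of duplicate plates.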

Cell Line | relative viability
NCI-H1299 | 0.933
NCI-H1563 | 0.72
NCI-H1703 | 0.368
NCI-H2170 | 0.805

Compound: N#CC1(c2ccc(NC(=O)c3cccnc3NCc3ccncc3)cc2)CCCC1 [Apatinib] + CC(=O)Nc1cccc(-n2c(=O)n(C3CC3)c(=O)c3c(Nc4ccc(I)cc4F)n(C)c(=O)c(C)c32)c1 [Trametinib] (partner 0.02 µM)
Experiment: as above
Details: first compound 0.08 µM
Summary of the method: as §1

Cell Line | relative viability
201T | 0.731
A-427 | 0.832
BEN | 1.22
CAL-12T | 0.385
COR-L23 | 0.721
COR-L 105 | 0.476
ChaGo-K-1 | 0.902
EKVX | 0.419
EPLC-272H | 0.297
H3255 | 0.655
HARA | 0.736
HCC-15 | 0.393
HCC-44 | 1.08
HCC-78 | 0.717
HCC-366 | 0.336
HCC-827 | 0.525

Cell Line | relative viability
HOP-62 | 0.411
LC-2-ad | 0.94
LCLC-97TM1 | 0.221
LCLC-103H | 0.702
LK-2 | 0.605
LOU-NH91 | 0.826
LU99A | 0.58
LXF-289 | 0.667
NCI-H23 | 0.477
NCI-H522 | 0.799
NCI-H1648 | 0.466
NCI-H1650 | 0.607
NCI-H2170 | 0.942
NCI-H2342 | 0.918
SW 900 | 0.757

Same assay, conditions: first compound 0.253 µM

Cell Line | relative viability
201T | 0.725
A-427 | 0.741
BEN | 0.944
CAL-12T | 0.337
COR-L23 | 0.666
COR-L 105 | 0.418
ChaGo-K-1 | 0.93
EKVX | 0.362
EMC-BAC-2 | 0.869
EPLC-272H | 0.264
H3255 | 0.588
HARA | 0.829
HCC-15 | 0.295
HCC-44 | 0.993
HCC-78 | 0.683
HCC-366 | 0.393

Cell Line | relative viability
HCC-827 | 0.533
HOP-62 | 0.395
LC-2-ad | 0.926
LCLC-97TM1 | 0.221
LCLC-103H | 0.699
LK-2 | 0.671
LOU-NH91 | 0.745
LU99A | 0.552
LXF-289 | 0.705
NCI-H23 | 0.393
NCI-H522 | 0.77
NCI-H1648 | 0.467
NCI-H1650 | 0.659
NCI-H2170 | 0.881
NCI-H2342 | 0.777
SW 900 | 0.801

Same assay, conditions: first compound 0.8 µM

Cell Line | relative viability
201T | 0.68
A-427 | 0.726
BEN | 1.11
CAL-12T | 0.289
COR-L23 | 0.574
COR-L 105 | 0.371
ChaGo-K-1 | 0.862
EKVX | 0.32
EMC-BAC-2 | 0.887
EPLC-272H | 0.301
H3255 | 0.669
HARA | 0.673
HCC-15 | 0.327
HCC-44 | 1.07
HCC-78 | 0.781
HCC-366 | 0.369

Cell Line | relative viability
HCC-827 | 0.492
HOP-62 | 0.36
LC-2-ad | 0.907
LCLC-97TM1 | 0.179
LCLC-103H | 0.722
LK-2 | 0.75
LOU-NH91 | 0.716
LU99A | 0.543
LXF-289 | 0.638
NCI-H23 | 0.427
NCI-H522 | 0.731
NCI-H1648 | 0.39
NCI-H1650 | 0.395
NCI-H2170 | 0.857
NCI-H2342 | 0.916
SW 900 | 0.772

Same assay, conditions: first compound 2.53 µM

Cell Line | relative viability
201T | 0.729
A-427 | 0.737
BEN | 0.948
CAL-12T | 0.313
COR-L23 | 0.466
COR-L 105 | 0.436
ChaGo-K-1 | 0.837
EKVX | 0.392
EMC-BAC-2 | 0.818
EPLC-272H | 0.321
H3255 | 0.597
HCC-15 | 0.367
HCC-44 | 1.09
HCC-78 | 0.651
HCC-366 | 0.314
HCC-827 | 0.519

Cell Line | relative viability
HOP-62 | 0.422
LC-2-ad | 0.678
LCLC-97TM1 | 0.231
LCLC-103H | 0.713
LK-2 | 0.793
LOU-NH91 | 0.717
LU99A | 0.486
LXF-289 | 0.608
NCI-H23 | 0.426
NCI-H522 | 0.592
NCI-H1648 | 0.537
NCI-H1650 | 0.515
NCI-H2170 | 0.822
NCI-H2342 | 0.846
SW 900 | 0.623

Same assay, conditions: first compound 8 µM

Cell Line | relative viability
201T | 0.607
A-427 | 0.521
BEN | 0.687
CAL-12T | 0.249
COR-L23 | 0.376
COR-L 105 | 0.431
ChaGo-K-1 | 0.691
EKVX | 0.251
EMC-BAC-2 | 0.799
EPLC-272H | 0.234
H3255 | 0.535
HARA | 0.6
HCC-15 | 0.308
HCC-44 | 0.811
HCC-78 | 0.61
HCC-366 | 0.273

Cell Line | relative viability
HCC-827 | 0.425
HOP-62 | 0.394
LC-2-ad | 0.659
LCLC-97TM1 | 0.182
LCLC-103H | 0.688
LK-2 | 0.395
LOU-NH91 | 0.729
LU99A | 0.29
LXF-289 | 0.56
NCI-H23 | 0.31
NCI-H522 | 0.68
NCI-H1648 | 0.335
NCI-H1650 | 0.482
NCI-H2170 | 0.737
NCI-H2342 | 0.834
